This note sets out measurements from patent US7414066B2, “Amide compounds and medications containing the same technical field” (Kowa Company Ltd., priority 1999, dated 2008).

`COC(=O)c1cccc2nc(SCCCCCC(=O)Nc3c(SC)cc(C)nc3SC)oc12` [Compound No. 1238, 6-(7-methoxycarbonylbenzoxazol-2-ylthio)-N-[2,4-bis(methylthio)-6-methyl-3-pyridyl]hexanamide]: the melting point (in general, the temperature of the solid-liquid transition) lay within 141 to 142 °C.
As for `COC(=O)c1cccc2nc(SCCCCCCCCC(=O)Nc3c(SC)cc(C)nc3SC)oc12` [Compound No. 1240, 9-(7-methoxycarbonylbenzoxazol-2-ylthio)-N-[2,4-bis(methylthio)-6-methyl-3-pyridyl]nonanamide], the melting point lay within 126 to 128 °C.
Under `CSc1cc(C)nc(SC)c1NC(=O)CSc1nc2cccc(C(F)(F)F)c2o1` [Compound No. 1247, 2-(7-trifluoromethylbenzoxazol-2-ylthio)-N-[2,4-bis(methylthio)-6-methyl-3-pyridyl]acetamide] stands 207 to 209 °C; under `CSc1cc(C)nc(SC)c1NC(=O)CCCCSc1nc2cccc(C(F)(F)F)c2o1` [Compound No. 1250, 5-(7-trifluoromethylbenzoxazol-2-ylthio)-N-[2,4-bis(methylthio)-6-methyl-3-pyridyl]pentanamide], 179 to 180 °C.
Under `CSc1cc(C)nc(SC)c1NC(=O)CCCCCCSc1nc2cccc(C(F)(F)F)c2o1` [Compound No. 1252, 7-(7-trifluoromethylbenzoxazol-2-ylthio)-N-[2,4-bis(methylthio)-6-methyl-3-pyridyl]heptanamide] stands 129 to 131 °C; under `CSc1cc(C)nc(SC)c1NC(=O)CCCCCCCSc1nc2cccc(C(F)(F)F)c2o1` [Compound No. 1253, 8-(7-trifluoromethylbenzoxazol-2-ylthio)-N-[2,4-bis(methylthio)-6-methyl-3-pyridyl]octanamide], 115 to 116 °C; under `CSc1cc(C)nc(SC)c1NC(=O)CCCCSc1nc2c(C)c(Cl)cc(C(C)C)c2o1` [Compound No. 1260, 5-(5-chloro-7-isopropyl-4-methylbenzoxazol-2-ylthio)-N-[2,4-bis(methylthio)-6-methyl-3-pyridyl]pentanamide], 155 to 156 °C.
Under `CSc1cc(C)nc(SC)c1NC(=O)CCCCCCSc1nc2c(C)c(Cl)cc(C(C)C)c2o1` [Compound No. 1262, 7-(5-chloro-7-isopropyl-4-methylbenzoxazol-2-ylthio)-N-[2,4-bis(methylthio)-6-methyl-3-pyridyl]heptanamide] stands 129 to 131 °C.
With `CCSc1cc(C)nc(SCC)c1NC(=O)CSc1nc2cccc(C(F)(F)F)c2o1` [Compound No. 1267, 2-(7-trifluoromethylbenzoxazol-2-ylthio)-N-[2,4-bis(ethylthio)-6-methyl-3-pyridyl]acetamide], the melting point fell in the range of 182 to 183 °C.
Take `CCSc1cc(C)nc(SCC)c1NC(=O)CCCSc1nc2cccc(C(F)(F)F)c2o1` [Compound No. 1269, 4-(7-trifluoromethylbenzoxazol-2-ylthio)-N-[2,4-bis(ethylthio)-6-methyl-3-pyridyl]butanamide]: the melting point lay within 148 to 150 °C.
Compound `CCSc1cc(C)nc(SCC)c1NC(=O)CCCCSc1nc2cccc(C(F)(F)F)c2o1` [Compound No. 1270, 5-(7-trifluoromethylbenzoxazol-2-ylthio)-N-[2,4-bis(ethylthio)-6-methyl-3-pyridyl]pentanamide] gave a melting point of 155 to 156 °C.
Under `CCSc1cc(C)nc(SCC)c1NC(=O)CCCCCCSc1nc2cccc(C(F)(F)F)c2o1` [Compound No. 1272, 7-(7-trifluoromethylbenzoxazol-2-ylthio)-N-[2,4-bis(ethylthio)-6-methyl-3-pyridyl]heptanamide] stands 127 to 128 °C; under `CCSc1cc(C)nc(SCC)c1NC(=O)CCCCCCCSc1nc2cccc(C(F)(F)F)c2o1` [Compound No. 1273, 8-(7-trifluoromethylbenzoxazol-2-ylthio)-N-[2,4-bis(ethylthio)-6-methyl-3-pyridyl]octanamide], 99 to 100 °C.
Then `CCSc1cc(C)nc(SCC)c1NC(=O)CCCCCCCCSc1nc2cccc(C(F)(F)F)c2o1` [Compound No. 1274, 9-(7-trifluoromethylbenzoxazol-2-ylthio)-N-[2,4-bis(ethylthio)-6-methyl-3-pyridyl]nonanamide], with 115 to 116 °C; and `CCSc1cc(C)nc(SCC)c1NC(=O)CCCCSc1nc2c(C)c(Cl)cc(C(C)C)c2o1` [Compound No. 1280, 5-(5-chloro-7-isopropyl-4-methylbenzoxazol-2-ylthio)-N-[2,4-bis(ethylthio)-6-methyl-3-pyridyl]pentanamide], with 141 to 142 °C; and `CCSc1cc(C)nc(SCC)c1NC(=O)CCCCCCSc1nc2c(C)c(Cl)cc(C(C)C)c2o1` [Compound No. 1282, 7-(5-chloro-7-isopropyl-4-methylbenzoxazol-2-ylthio)-N-[2,4-bis(ethylthio)-6-methyl-3-pyridyl]heptanamide], with 117 to 120 °C.
With `CCSc1cc(C)nc(SCC)c1NC(=O)CCCCCCCSc1nc2c(C)c(Cl)cc(C(C)C)c2o1` [Compound No. 1283, 8-(5-chloro-7-isopropyl-4-methylbenzoxazol-2-ylthio)-N-[2,4-bis(ethylthio)-6-methyl-3-pyridyl]octanamide], the melting point was 82 to 84 °C.
Under `CCSc1cc(C)nc(SCC)c1NC(=O)CCCCCCCCSc1nc2c(C)c(Cl)cc(C(C)C)c2o1` [Compound No. 1284, 9-(5-chloro-7-isopropyl-4-methylbenzoxazol-2-ylthio)-N-[2,4-bis(ethylthio)-6-methyl-3-pyridyl]nonanamide] stands 93 to 94 °C; under `Cc1cc(SC(C)C)c(NC(=O)CCCSc2nc3cccc(C(F)(F)F)c3o2)c(SC(C)C)n1` [Compound No. 1289, 4-(7-trifluoromethylbenzoxazol-2-ylthio)-N-[2,4-bis(isopropylthio)-6-methyl-3-pyridyl]butanamide], 135 to 136 °C; under `Cc1cc(SC(C)C)c(NC(=O)CCCCSc2nc3cccc(C(F)(F)F)c3o2)c(SC(C)C)n1` [Compound No. 1290, 5-(7-trifluoromethylbenzoxazol-2-ylthio)-N-[2,4-bis(isopropylthio)-6-methyl-3-pyridyl]pentanamide], 118 to 120 °C.
In turn, `Cc1cc(SC(C)C)c(NC(=O)CCCCCSc2nc3cccc(C(F)(F)F)c3o2)c(SC(C)C)n1` [Compound No. 1291, 6-(7-trifluoromethylbenzoxazol-2-ylthio)-N-[2,4-bis(isopropylthio)-6-methyl-3-pyridyl]hexanamide] returned a melting point of 102 to 103 °C.
The compound `Cc1cc(SC(C)C)c(NC(=O)CCCSc2nc3c(C)c(Cl)cc(C(C)C)c3o2)c(SC(C)C)n1` [Compound No. 1299, 4-(5-chloro-7-isopropyl-4-methylbenzoxazol-2-ylthio)-N-[2,4-bis(isopropylthio)-6-methyl-3-pyridyl]butanamide] showed a melting point of 141 to 143 °C.
Under `Cc1cc(SC(C)C)c(NC(=O)CCCCSc2nc3c(C)c(Cl)cc(C(C)C)c3o2)c(SC(C)C)n1` [Compound No. 1300, 5-(5-chloro-7-isopropyl-4-methylbenzoxazol-2-ylthio)-N-[2,4-bis(isopropylthio)-6-methyl-3-pyridyl]pentanamide] stands 143 to 145 °C.
